The values that follow come from patent publication EP0011277A1, “Dechloromaytansinoids, their production and use and pharmaceutical compositions containing them” (priority 1978, dated 1980).

For one experiment, the system named is leukemia P-388. Description: Antitumor therapeutic test in mice, leukemia P-388 (NCI protocol), life span prolongation. The experiment is classed as in vivo. The conditions noted are these: intraperitoneally once daily for 9 consecutive days. On the procedure: (§1) Therapeutic tests were carried out in mice according to NCI-protocols 1,200 and 1,300, Cancer Chemother, Reports, Part 3, 1972, Vol.3, No.2, in which leukemia P-388 and melanoma B-16 tumor cells had been intraperitoneally transplanted, compound (I) being administered intraperitoneally once daily for 9 consecutive days.

Another experiment concerns melanoma B-16. Description: Antitumor therapeutic test in mice, melanoma B-16 (NCI protocol), life span prolongation. The experiment is classed as in vivo. As to conditions: intraperitoneally once daily for 9 consecutive days. On the procedure: as §1
Another experiment deals with Tetrahymena pyriformis W. Description: Antiprotozoal activity, growth inhibition by serial dilution method. The experiment is classed as cell-based. The conditions noted are these: read-out: Antiprotozoal activity MIC (μg/ml) Tetrahymena pyriformis W. The protocol:
Antiprotozoal activity of compound (I) was assayed with Tetrahymena pyriformis W as the test organism and a medium composed of 20 g tryptose-peptone (Difoo Cc.), 1 g; yeast extract, 2 g glucose, 1000 mℓ distilled water, 10 mℓ IM phosphate buffer (pH 7.0) as the assay medium. The microorganism was incubated at 28°C for 44 to 48 hours and the growth inhibitory activity of compound (I) was assayed by the serial dilution method.

≈ marks a conversion by molar mass, not a printed value. Where two headings read alike, the source gives them in different places.

Take `COc1cc2cc(c1)N(C)C(=O)CC(OC(=O)C(C)C)C1(C)OC1C(C)C1CC(O)(NC(=O)O1)C(OC)/C=C/C=C(\C)C2` (stereo not shown) [Dechloromaytansinol 3-isobutyrate, dechloromaytansinol 3-isobutyrate]: the “Antitumor activities P-388 (T/C %)” value in the experiment on leukemia P-388 (Dose 50 µg/kg) is given as 168 T/C %; in the experiment with leukemia P-388 (Dose 100 µg/kg) it was 189 T/C %; in the experiment with leukemia P-388 (Dose 200 µg/kg), 193 T/C %; with leukemia P-388 (Dose 400 µg/kg), 224 T/C %. In addition, the “Antitumor activities B-16 (T/C %)” value with melanoma B-16 (Dose 100 µg/kg) was 150 T/C %; in the experiment on melanoma B-16 (Dose 200 µg/kg) it was 152 T/C %; in the experiment on melanoma B-16 (Dose 400 µg/kg) it was 174 T/C %; in the experiment on melanoma B-16 (Dose 800 µg/kg), 214 T/C %.

Consider `COc1cc2cc(c1)N(C)C(=O)CC(OC(=O)CCl)C1(C)OC1C(C)C1CC(O)(NC(=O)O1)C(OC)/C=C/C=C(\C)C2` (stereo not shown) [Dechloromaytansinol 3-chloroacetate, dechloromaytansinol 3-chloroacetate], for which the MIC in the experiment with Tetrahymena pyriformis W was ≥ 4 µg/mL.

Turning to dechloromaytansine, the “Antitumor activities P-388 (T/C %)” value in the experiment with leukemia P-388 (Dose 50 µg/kg) is 158 T/C %; with leukemia P-388 (Dose 100 µg/kg), 165 T/C %; with leukemia P-388 (Dose 200 µg/kg), 175 T/C %; in the experiment on leukemia P-388 (Dose 400 µg/kg) it was 189 T/C %. For the same compound, the “Antitumor activities B-16 (T/C %)” value in the experiment with melanoma B-16 (Dose 100 µg/kg) amounted to 171 T/C %; in the experiment with melanoma B-16 (Dose 200 µg/kg) it was 152 T/C %; in the experiment on melanoma B-16 (Dose 400 µg/kg), 179 T/C %; with melanoma B-16 (Dose 800 µg/kg), 190 T/C %.

Take `COc1cc2cc(c1)N(C)C(=O)CC(OC(=O)Cc1ccccc1)C1(C)OC1C(C)C1CC(O)(NC(=O)O1)C(OC)/C=C/C=C(\C)C2` (stereo not shown) [Dechloromaytansinol 3-phenylacetate, dechloromaytansinol 3-phenylacetate]: the MIC in the experiment on Tetrahymena pyriformis W (incubated at 28°C for 44 to 48 hours, serial dilution method) turned out to be 2 µg/mL (≈ 3.08 µM).

Consider `COc1cc2cc(c1)N(C)C(=O)CC(OC(=O)C1CCCCC1)C1(C)OC1C(C)C1CC(O)(NC(=O)O1)C(OC)/C=C/C=C(\C)C2` (stereo not shown) [dechloromaytansinol 3-cyclohexanecarboxylate], for which the MIC in the experiment with Tetrahymena pyriformis W was found to be 4 µg/mL (≈ 6.24 µM).
